# In patent US20230226081A1, “PHARMACEUTICAL FORMULATIONS OF ABIRATERONE ACETATE AND NIRAPARIB” (Janssen Pharmaceutica NV, priority 2020, published 2023):
# Assay: Particle size of the drug substances
# Type: physicochemical
row,SMILES,d50 particle size of drug substance
1,CC(=O)O[C@H]1CC[C@@]2(C)C(=CC[C@@H]3[C@@H]2CC[C@]2(C)C(c4cccnc4)=CC[C@@H]32)C1 [Abiraterone acetate],4-5 μm
2,"Cc1ccc(S(=O)(=O)O)cc1.NC(=O)c1cccc2cn(-c3ccc([C@@H]4CCCNC4)cc3)nc12 [niraparib tosylate monohydrate, 2-[4-[(3S)-piperidin-3-yl]phenyl]-2H-indazole-7-carboxamide tosylate monohydrate]",around 50 μm
